Six compounds from PubChem BioAssay (NCI) can be followed below.

Common to all, as to experiment: NCI tumour cell line growth inhibition, 48 h
For assay [1], the system named is NCI-H226 lung.
Assay [2] concerns SF-268 CNS.
The test system of assay [3] is HCC-2998 colon.
The test system of assay [4] is HOP-92 NSCLC.
Assay [5] concerns RPMI-8226 leukemia.
The test system of assay [6] is KM12 colon.
In assay [7] the test system is SW-620 colon.
In assay [8] the test system is EKVX NSCLC.
For assay [9], the system named is MOLT-4 leukemia.
The test system of assay [10] is SK-OV-3 ovarian.

“And” between values parts separate entries of the source, which are not always exact repeats. Equal entries are not always repeated.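 Method: 48-hour compound exposure of cells in 96-well plates, five concentrations, linear interpolation of endpoints. GI50 marks 50% less growth. TGI denotes the concentration required for complete inhibition of growth.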 Some results are limits rather than exact numbers.

Take `c1ccc(-c2[nH]ncc2-c2ccnc(-c3ccc(OCCn4ccnc4)cc3)c2)nc1`: the GI50 is greater than 18.7 µM in [1]; greater than 25 µM in assay [2]; greater than 25 µM in assay [3]; greater than 25 µM in assay [4]; greater than 20.6 µM in [5]; 13.7 µM in [6]. The GI50 is greater than 25 µM in assay [7], greater than 25 µM in [8], 10 µM in assay [9] and greater than 25 µM in assay [10]. Further, the TGI in assay [1], in assay [2], in assay [3], in assay [4], in assay [5] and in [6] was greater than 25 µM throughout. Also, the TGI in assay [7], in assay [8], in assay [9] and in assay [10] was greater than 25 µM each time.
`Cc1ccc(O)cc1Nc1ccnc2ccc(S(C)(=O)=O)cc12`: the GI50 in [1] was 5.05 µM; in assay [2], 2.67 µM; in assay [3], 10 µM; in [4] it was 0.0327 µM; in [5], greater than 25 µM; in assay [6] it was greater than 25 µM. Besides, the GI50 was 15.2 µM in assay [7], 11.9 µM in assay [8], greater than 19.8 µM in assay [9] and 3.22 µM in assay [10]. For the same compound, the TGI in assay [1] is greater than 23.6 µM; in assay [2], greater than 25 µM; in [3] it was greater than 25 µM; in assay [4] it was 0.245 µM; in [5], greater than 25 µM; in assay [6] it was greater than 25 µM. The TGI in [7], in [8], in [9] and in [10] was greater than 25 µM in each case.
For `CC1=C(C(=O)Nc2ccccc2)C(c2ccc(N(C)C)cc2)C(C(=O)Nc2ccccc2)=C(C)N1`, the TGI in assay [1] was greater than 100 µM; in [2], greater than 71.6 µM; in assay [3], 23.4 µM; in assay [4], greater than 94.6 µM; in assay [5], 72.9 µM; in assay [6] it was 27.2 µM. In addition, the TGI in [7] was greater than 83 µM; in assay [8] it was greater than 100 µM; in assay [9], greater than 96.6 µM; in assay [10], greater than 100 µM.
Take `Cc1cc(O)c2c(c1)C(=O)C=CC2=O`: the TGI in assay [1] is 42.4 µM and 39.2 µM; in [2], 48.3 µM and 31.5 µM; in assay [3], 25.4 µM and 30 µM; in assay [4], 5.15 µM and 7.69 µM; in assay [5], 17.9 µM and 3.44 µM; in [6], 32.9 µM and 32.5 µM. Besides, the TGI in [7] was 23.9 µM and 22.4 µM; in assay [8], 20.6 µM and 15.2 µM; in [9] it was 1.71 µM and 1.61 µM; in assay [10] it was greater than 84.2 µM. Also, the GI50 in assay [4] is 2.33 µM and 2.51 µM; in assay [5] it was 3.29 µM and 0.39 µM; in assay [7], 7.3 µM and 2.67 µM; in assay [8], 7.46 µM and 3.6 µM.
Turning to `COc1cc2c(N3CCN(C(=O)Nc4ccc(OC(C)C)cc4)CC3)ncnc2cc1OCCCN1CCCCC1`, the GI50 was 15.2 µM in [1]; 16.2 µM in [2]; 19.6 µM in assay [3]; 6.24 µM in [4]; 11.7 µM in assay [5]; 3.22 µM in assay [6]. In addition, the GI50 was 14.6 µM in [7], 28.9 µM in assay [8], 12.8 µM in [9] and 18.4 µM in [10]. The TGI in assay [1] is 45.3 µM; in assay [2], 38.6 µM; in [3] it was 44.3 µM; in [4], 33.1 µM; in [5], greater than 54.1 µM; in [6] it was 29.8 µM. Besides, the TGI in assay [7] is 38.8 µM; in [8] it was greater than 100 µM; in assay [9] it was 61.2 µM; in assay [10], 39.9 µM.
Consider `CCc1ccccc1NC(=O)c1cccc([N+](=O)[O-])c1O`, for which the TGI in [1] was 88.7 µM; in assay [2], greater than 100 µM; in [3], greater than 100 µM; in assay [4], 45.4 µM; in assay [5], greater than 100 µM; in assay [6], 48.6 µM. The TGI in assay [7], in assay [8], in assay [9] and in [10] was greater than 100 µM in each case.
